Like-named read-outs stand apart in the source and are kept apart here.
Legend:
[1] = system: GBM cells; experiment: Autophagy and ER stress markers in GBM cells (western blot); type: cell-based; details: for autophagy in GBM cells: GBM8401 and U87MG cells, western blot markers
Description: (§1) The cells were lysed in a lysis buffer (50 mM Tris-HCl, pH 7.4, 5 mM MgCl2, 1% Nonidet P-40, 150 mMNaCl, 1 mM phenylmethylsulfonyl fluoride). Total protein was isolated and subjected to SDS polyacrylamide gel electrophoresis and electrotransfered onto PVDF membranes (Millipore). Primary antibodies, including p-mTOR (Ser 2448), mTOR, PI3K (P110α), p-Akt (Ser 473), Akt, p-S6K (Ser 424), S6K, p-AMPK (Thrl72), AMPK, and CASP3, were obtained from Cell Signaling and LC3 was from Abgent, and secondary antibodies for anti-mouse and anti-rabbit horseradish preoxidase (HRP)-conjugation were from Chemicon International. The protein detection was performed with enhanced chemiluminescence (ECL™) method captured by a Luminescence Imaging System (LAS-4000™, Fuji Photo Film Co., Ltd),
(§2) We observed several protein expression changes, primarily involved in autophagic and cell growth related pathway, it was shown that GBM cells are more sensitive to agents that induce autophagy than apoptosis. Thus, we examined the PI3K-Akt-mTORcascade with known roles m regulation of autophagy.

[2] = system: U87MG cells; experiment: Cell viability / cell death in U87MG; type: cell-based; details: 1 to 10 μM, 72 hr, FIG. 1(B)
[3] = system: GBM8401 cells; experiment: MTT cell viability assay in GBM8401; details: for cell death: GBM8401, 1 to 10 μM, 72 hr, FIG. 1(B)
Description: To examine the cytotoxicity of anti-psychotic drugs on malignant glioma, GBM8401 cells were treated with 21 anti-psychotic drugs at 10 μM, respectively, for 72 hr.

[4] = system: U87MG sphere cells (cancer stem-like cells)
[5] = system: U87MG cells; experiment: Side population assay (flow cytometry) in U87MG; type: cell-based; details: 10 μM, decreased from 1.43%
Description: (§3) The cells were detached from the dishes with trypsin-EDTA (Invitrogen), and suspended in a single-cell suspension at 1×10^6 cells/mL in Hank's balanced salt solution (HBSS) supplemented with 3% fetal calf serum and 10 mM Hepes. The cells were then incubated at 37° C. for 90 min with 20 μg/mL Hoechst 33342 (Sigma Chemical, St. Louis, Mo.), either alone or in the presence of 50 μmol/L verapamil (Sigma), an inhibitor of the verapamil-sensitive ABC transporter. After incubation, the cells were centrifuged immediately for 5 min at 300 g and 4° C. and resuspended in ice-cold HBSS, The cells were kept on ice to inhibit efflux of the Hoechst dye, and 1 μg/mL propidium Iodide (BD) was added to discriminate dead cells. Finally, these cells were filtered through a 40 μm cell strainer (BD) to obtain a single-cell suspension. Dual-wavelength analysis and purification were performed on a dual-laser PACS. Vantage SE machine (BD). Hoechst 33342 was excited with a 355 nm UV light and emitted blue fluorescence with a 450/20 band-pass (BP) filter and red fluorescence with a 675 nm edge filter long-pass (EFLP). A 610 nm dichroic mirror short-pass (DMSP) was used to separate the emission wavelengths. Pi-positive (dead) cells were excluded from the analysis.

[6] = system: GBM8401 cells; experiment: Western blot analysis in GBM8401; type: cell-based; details: 24 hr
Description: as §1, §2
(§4) Pathway analysis of differentially expressed gene signatures obtained from microarray profiling was investigated via Consensus PathDB. Several thioridazine-mediated pathways were highlighted, including pathway in cancer, GPCR signaling, senescence and autophagy, DMA damage response, and G1 to S cell cycle control (FIGS. 4(A) and 4(B)). Because G-protein couple receptors (GPCR) are membrane associated proteins and have been widely recognized as drug targets. Therefore, we tested whether GPCR might be the target of thioridazine.

[7] = system: primary GBM spheroids; experiment: Tumor spheroid assay; type: cell-based
Description: For the formation of tumor spheroids, cells were cultured in HEScGRO serum-free medium (human) (Chemicon) supplemented with 20 ng/mL Hegf, 10 ng/mL hFGF-b and NeuroCult MS-A proliferation supplements. Cells were seeded at low densities (1000 cells/mL) in 12-well low adhesion plates at 1 mL, per well Spheroids (tight, spherical, non-adherent masses >90 um in diameter) were counted, and at least 50 spheroids per group were measured with an ocular micrometer. For secondary spheroid-forming assays, primary spheroids were dissociated mechanically and processed as in the primary assay. For the quantification of the percentage of spheroid-forming cells, cells were seeded at one cell per well in 96-well plates, […]

[8] = system: U87MG cells; experiment: Western blot analysis in U87MG; type: cell-based; details: 24 hr
Description: as §1, §2, §4

[9] = system: GBM8401 cells; experiment: Side population assay (flow cytometry) in GBM8401; type: cell-based; details: 10 μM, decreased from 1.26%
Description: as §3

[10] = system: U87MG cells; experiment: U87MG subcutaneous tumor in NOD/SCID mice; type: in vivo; details: 5 days/week
Description: Female NOD/SCID, 4-6 weeks of age were purchased from the National Laboratory Animal Center (NLAC) (Taipei, Taiwan). All protocols were approved by the institutional animal care committee of Taipei Medical University Hospital Mice were inoculated with U87MG cells in the right flank of NOD/SCID mice (1×10^6 cells/100 μL PBS, subcutaneous infection) and divided into control (sham) and thioridazine-treatment groups (5 mg/kg/day, 5 days/week). N=5 in each group. Tumor burden was measured on a weekly basis using a caliper and calculated using the following formula (a×b^2)/2, where a and b represents the long and short axis of the tumor respectively.
By the end of 6 weeks, animals were humanely sacrificed and tumor biopsies were collected.

[11] = U87MG sphere cells, 10 and 20 μM, 24 hr

fluphenazine
autophagy in GBM cells [1]: induce autophagye | cell death [2]: dose-dependent increase in cell death | cell death [3]: dose-dependent increase in cell death

prochlorperazine
cell viability ([4]; U87MG sphere cells, 10 and 15 μM, 24 hr): significantly reduced

thioridazine
autophagy in GBM cells [1]: induce autophagye | ER stress: IRE1a and ER stress-associated proteins (Bip and CHOP) ([1]; GBM cells): accumulation | cell death [2]: dose-dependent increase in cell death | cancer stem-like cells population (side population) [5]: 0.1% | EDNRA, GPR17, GPRC5B (GPCR) expression ([6]; GBM8401, 10 μM): down-regulated | LC3-II and phospho-AMPK (THr172) ([6]; GBM8401, 5 to 15 μM): up-regulated | PI3K, phospho-Akt(Ser 473), phospho-mTOR(Ser 2448), phospho-S6K (Ser 424) ([6]; GBM8401, 5 to 15 μM): down-regulated | cell viability ([4]; 10 µM): 22% | cell viability [4, 11]: significantly reduced | IC50 [3]: < 10 µM | cell death [3]: dose-dependent increase in cell death | formation of primary GBM spheroids [7]: inhibited | EDNRA, GPR17, GPRC5B (GPCR) expression ([8]; 10 μM): down-regulated | LC3-II and phospho-AMPK (THr172) ([8]; 5 to 15 μM): up-regulated | PI3K, phospho-Akt(Ser 473), phospho-mTOR(Ser 2448), phospho-S6K (Ser 424) ([8]; 5 to 15 μM): down-regulated | cancer stem-like cells population (side population) [9]: 0.03% | tumor samples (biopsies) compared to control mice ([10]; 5 mg/kg/day, end of 6 weeks): significantly smaller in size and less vascularized | tumor burden compared to vehicle control ([10]; i.p. injection 5 mg/kg/day, NOD-SCID mice with U87MG cells): significantly smaller

trifluoperazine
cell viability [4, 11]: significantly reduced

Reference: patent US20130289023A1, “METHOD FOR TREATING BRAIN TUMOR” (priority 2012, published 2013)
